Results from US5356903A, “1-cyclopropyl-4-pyridyl-quinolines” (Sterling Winthrop Inc., priority 1993, dated 1994).
Read-outs that look alike come from different tables or passages of the source.

Experiments:
human topoisomerase II = molecular target: T1, human topoisomerase II (Homo sapiens, UniProt P11388); assay: Mammalian Topoisomerase II Inhibition Assay (stabilization of DNA-topo II covalent complex); format: biochemical
T1 construct: Topo II was purified from late log phase suspension cultures of HeLa WIS; endogenous in cells; host or cells: HeLa WIS (late log phase suspension cultures); enzyme purified from the cells
Excerpt: Mammalian Topoisomerase II Inhibition Assay Procedure
The inhibition of human topoisomerase II (hereafter topo II) was quantitated by a procedure adapted from that described by Trask et al., EMBO J., 3, 671-676 (1984). The assay quantitates the amount of topo II covalently complexed by DNA at equilibrium during a topo II reaction. This assay determines the potential of a compound to stabilize this complex, which potential is closely related to the cytotoxicity of several clinically useful antineoplastic agents.
Topo II was purified from late log phase suspension cultures of HeLa WIS by an adaptation of the method described by Per et al., Mol. Pharmacol., 32, 17-25 (1987).
Assays (in duplicate) were assembled at 4° C. Assay mix (25 μl ) was distributed in Beckman (No. 265270) 1.5 mL microtitre tubes followed by the addition of 5 μl test to yield the final concentrations of assay components:
4 ng 3' end labeled (^32 p) pBR322 DNA (10^7 DPM/μg)
The assay mix including the test compound was incubated for 20 minutes at 37° C. The reaction was terminated at 37° C. by the addition of 3 μl 10% SDS followed by the addition of 266 μl 10 mM Tris-Cl pH 7.5, 20 μg/ml calf thymus DNA, 1% SDS.
A SDS/protein precipitate was formed by the addition of 28 μl 2.5M KCl followed by chilling on ice for a minimum of 10 minutes. The precipitate was collected and washed with a Brandell cell harvester on a GFB glass fiber filter membrane as follows. The contents of the assay tube were drawn up into the harvester. The tube was then rinsed 7× with 10 mM Tris-Cl pH 7.5, 1 mM EDTA and 100 mM KCl. The precipitate was washed with 1 L of a solution of 10 mM Tris-Cl pH 7.5, 1 mMEDTA, 100 mM KCl followed by 1 L of 95% ethyl alcohol and finally 0.5 L 70% of ethyl alcohol (per 48 samples in each case). After drying, CPM was determined by liquid scintillation counting with 5 ml Biofluor (NEN Research Products) or Readisafe (Beckman Instruments Inc.) cocktail.
Preparation of test compound--A stock solution (6 mg/ml) of test compound was prepared either in 0.1N sodium hydroxide or 0.2N hydrogen chloride. This solution then was diluted 1/5 into water and serially thereafter in either 0.02N sodium hydroxide or 0.04N hydrogen chloride, respectively. The stock solution and serial dilution of the test compound was stored at -20° C. prior to testing.
Screening of test compound--As an initial screen, the test compound was tested at a final concentration of 2, 20 and 200 μg/ml. The compound was then retested at a range of concentrations (usually 2-3× steps) bridging their approximate EC50 's, as estimated by the prescreen.
Controls--A solvent control which indicates the base level of topo II-DNA complexes formed in the absence of the test compound was included in each test. A control, in which topo II was omitted, was included for each test compound at the highest drug concentration tested.
Reference Agent--A dose response curve with mAMSA at 0.01, 0.08, 0.16, 0.32, 1.0 and 10 μg/ml was included in each test.
Data reduction--The EC50 (effective concentration at which 50% of the maximal DNA-topo II complex is formed) of a test compound is defined to be the concentration with activity equal to the EC50 of the reference agent, mAMSA. The maximal DNA-topo II complex formed is taken as that equal to that formed at the nearly saturating dose of mAMSA (10 μg/ml).
The results obtained for representative compounds of the invention in the human topoisomerase II assay procedure expressed as EC50 s (μM) are presented in Table 3.

[1] = system: pancreatic ductal adenocarcinoma No. 03 (Panc 03); assay: In vivo antitumor assay, Panc03; design: species or system murine tumor in mice
Excerpt: (§1) In vivo Antitumor Assay Procedure
(§2) Mice: Inbred: C3H/He and NCR-nu; and Hybrids: B6D2F1 (C57BL/6 females×DBA/2 males, CD2F1 (Balb/c females×DBS/2 males) and B6C3fl (C57BL/6×C3H) were bred at Wayne State University from strains obtained from the Frederick Cancer Research Facility, Frederick, Md. or purchased from commercial suppliers.
Tumors: Murine Tumor: P388 leukemia and pancreatic ductal adenocarcinoma No. 03 (Panc 03) were used for in vivo testing. Human tumor: A single human tumor, mammary carcinoma MX-1 (MX1) was used for in vivo testing. All tumors are in the Developmental Therapeutics Program frozen tumor respository, maintained by the Biological Testing Branch, Frederick, Md. Each has a detailed description, code identification number, and list of references at the National Tumor Repository. Murine tumors were maintained in the mouse strain of origin and were transplanted in the appropriate F1 hydrid (or the strain of orgin) for therapy trials. Human mammary carcinoma MX-1 (MX1) was maintained as a subcutaneous implant in either athymic Swiss (Cr: NIH (S) - nu) or athymic random bred (NCR-nu) mice and transplanted in NCR-nu for therapy trials.
Chemotherapy: For pancreatic ductal adenocarcinoma No. 3, bilateral tumor implants were used to help ensure a more uniform tumor burden per mouse. The animals necessary to begin an experiment were pooled, implanted bilaterally s.c. on day zero with 30-60-mg tumor fragments using a 12-gauge trocar, and again pooled before randomization to the various treatment and control groups. Chemotherapy was started within three days after tumor implantation while the number of cells per mouse was relatively small (1×10^7 -1×10^8 cells).
End Points for Assessing Antitumor Activity
(§3) Quantitative end points used to assess antitumor activity were percent Increased Life Span (% ILS), and Tumor Growth Inhibition (T/C).
(§4) Endpoints were calculated as follows: […]
Tumors were measured with a caliper once or twice weekly (as needed) until either tumors exceeded 1600 mg or cure was assured. Tumor weights were estimated from two dimensional measurements: Tumor Weight (mg)+(a×b^2)/2, where a and b are the tumor length and width (mm) respectively. Measurements were carried out simultaneously in both treatment and control groups. When the control group tumors reached approximately 750-1500 mg in size (median of group), the median tumor weight of each group was determined (including zeros). The T/C value in percent is an indication of antitumor effectiveness. The % T/C was calculated from the following formula for solid murine tumor models: [formula] where T and C are median tumor weights of the treatment and control groups, respectively. A T/C equal to or less than 42% is considered significant antitumor activity. A T/C value<10% is indicative of a high degree of antitumor activity and is the level used by National Cancer Institute to justify further development if other requirements are met (termed DN-2 level activity). By convention the T/C value for the mammary carcinoma MX-1 model is calculated by the parameter of change in tumor weight. The % T/C was calculated from the following formula for the MX-1 model; [formula] where ΔT and ΔC are the change in mean tumor weight of the test and control groups, respectively, and T (initial) is the initial mean tumor weight of the test group. […] A % T/C≤10 is considered significant activity.

P388 leukemia = assay: In vivo antitumor assay, P388 leukemia; design: species or system murine tumor in mice
Excerpt: as §1, §2
Tumors: Murine Tumor: P388 leukemia and pancreatic ductal adenocarcinoma No. 03 (Panc 03) were used for in vivo testing. Human tumor: A single human tumor, mammary carcinoma MX-1 (MX1) was used for in vivo testing. All tumors are in the Developmental Therapeutics Program frozen tumor respository, maintained by the Biological Testing Branch, Frederick, Md. Each has a detailed description, code identification number, and list of references at the National Tumor Repository. Murine tumors were maintained in the mouse strain of origin and were transplanted in the appropriate F1 hydrid (or the strain of orgin) for therapy trials. Human mammary carcinoma MX-1 (MX1) was maintained as a subcutaneous implant in either athymic Swiss (Cr: NIH (S) - nu) or athymic random bred (NCR-nu) mice and transplanted in NCR-nu for therapy trials. […]
as §3, §4

[2] = system: mammary carcinoma MX-1 (MX1); assay: In vivo antitumor assay, mammary carcinoma MX-1; design: species or system human tumor in NCR-nu mice; conditions: MX-1, sc tumor/ip drug
Excerpt: as §1, §2
Tumors: Murine Tumor: P388 leukemia and pancreatic ductal adenocarcinoma No. 03 (Panc 03) were used for in vivo testing. Human tumor: A single human tumor, mammary carcinoma MX-1 (MX1) was used for in vivo testing. All tumors are in the Developmental Therapeutics Program frozen tumor respository, maintained by the Biological Testing Branch, Frederick, Md. […]
as §3, §4
Tumors were measured with a caliper once or twice weekly (as needed) until either tumors exceeded 1600 mg or cure was assured. […] When the control group tumors reached approximately 750-1500 mg in size (median of group), the median tumor weight of each group was determined (including zeros). […] The % T/C was calculated from the following formula for solid murine tumor models: [formula] where T and C are median tumor weights of the treatment and control groups, respectively. […]

[3] = concentration with activity equal to EC50 of mAMSA, 20 min, 37° C, read-out: Topo II EC50
[4] = footnote *: bell shaped dose response, read-out: Topo II EC50 (bell shaped dose response)

T1 sequence (P11388 whole entry): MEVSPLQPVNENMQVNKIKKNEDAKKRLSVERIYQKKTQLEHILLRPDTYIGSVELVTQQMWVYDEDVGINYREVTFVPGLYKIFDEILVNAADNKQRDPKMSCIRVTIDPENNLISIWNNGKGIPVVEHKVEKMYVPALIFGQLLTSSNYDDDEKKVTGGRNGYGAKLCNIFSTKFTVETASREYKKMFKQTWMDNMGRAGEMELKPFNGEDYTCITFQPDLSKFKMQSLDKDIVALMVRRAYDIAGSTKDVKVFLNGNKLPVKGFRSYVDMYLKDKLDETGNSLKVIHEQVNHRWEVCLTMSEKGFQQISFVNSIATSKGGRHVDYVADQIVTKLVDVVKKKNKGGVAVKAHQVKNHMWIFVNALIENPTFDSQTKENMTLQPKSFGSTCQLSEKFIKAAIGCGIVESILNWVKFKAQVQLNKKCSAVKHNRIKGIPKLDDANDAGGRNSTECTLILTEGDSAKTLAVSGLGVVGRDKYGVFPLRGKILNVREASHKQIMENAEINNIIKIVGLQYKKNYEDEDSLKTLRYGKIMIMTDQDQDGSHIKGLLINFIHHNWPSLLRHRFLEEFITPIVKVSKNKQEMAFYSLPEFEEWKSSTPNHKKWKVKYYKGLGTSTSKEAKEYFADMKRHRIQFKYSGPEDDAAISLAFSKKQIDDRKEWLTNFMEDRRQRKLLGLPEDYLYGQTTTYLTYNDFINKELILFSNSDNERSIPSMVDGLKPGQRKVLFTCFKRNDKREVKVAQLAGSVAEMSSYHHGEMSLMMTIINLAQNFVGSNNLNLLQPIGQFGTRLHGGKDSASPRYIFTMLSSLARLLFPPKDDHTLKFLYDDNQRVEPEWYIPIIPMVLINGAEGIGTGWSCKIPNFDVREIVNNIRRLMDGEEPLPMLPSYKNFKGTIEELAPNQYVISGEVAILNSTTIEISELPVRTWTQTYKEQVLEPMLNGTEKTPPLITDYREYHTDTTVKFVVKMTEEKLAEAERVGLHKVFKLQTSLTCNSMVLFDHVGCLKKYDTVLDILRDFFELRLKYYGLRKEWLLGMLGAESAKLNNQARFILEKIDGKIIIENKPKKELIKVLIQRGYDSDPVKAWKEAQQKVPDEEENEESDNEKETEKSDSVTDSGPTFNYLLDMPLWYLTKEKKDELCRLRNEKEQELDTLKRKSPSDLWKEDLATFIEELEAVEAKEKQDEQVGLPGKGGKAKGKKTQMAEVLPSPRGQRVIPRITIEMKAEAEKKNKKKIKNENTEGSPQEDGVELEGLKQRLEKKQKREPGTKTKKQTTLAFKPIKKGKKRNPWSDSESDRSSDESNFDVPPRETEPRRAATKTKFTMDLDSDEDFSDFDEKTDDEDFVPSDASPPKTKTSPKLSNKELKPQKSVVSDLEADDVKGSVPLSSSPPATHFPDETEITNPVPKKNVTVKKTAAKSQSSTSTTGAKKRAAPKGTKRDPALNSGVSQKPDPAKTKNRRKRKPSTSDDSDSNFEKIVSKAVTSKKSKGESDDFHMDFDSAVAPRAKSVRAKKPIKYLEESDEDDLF

SMILES	EC50 (human topoisomerase II; [3]) [µM]	other results
Cc1cc(-c2c(F)cc3c(=NN)ccn(C4CC4)c3c2F)cc(C)n1 [Example 1]	1.7	In vivo antitumor activity, Panc03 ([1]; Panc03, sc tumor/iv drug): Inactive
Cc1cc(-c2c(F)cc3c(=NNc4ccccn4)ccn(C4CC4)c3c2F)cc(C)n1 [Example 2]	0.98	% T/C (Tumor Growth Inhibition), Panc03 ([1]; Panc03, sc tumor/iv drug, T/C ≤42% considered significant): 37%; In vivo antitumor activity, P388 (P388 leukemia; P388, ip tumor/ip drug): Inactive; In vivo antitumor activity, P388 (P388 leukemia; P388, ip tumor/iv drug): Inactive; In vivo antitumor activity, MX-1 [2]: Inactive
Cc1ccc(S(=O)(=O)N=c2ccn(C3CC3)c3c(F)c(-c4cc(C)nc(C)c4)c(F)cc23)cc1 [Example 3]		EC50 (human topoisomerase II; [4]): 45 µM
Cc1cc(-c2c(F)cc3c(=N)ccn(C4CC4)c3c2F)cc(C)n1 [Example 4]	12	
CC(=O)NN=c1ccn(C2CC2)c2c(F)c(-c3cc(C)nc(C)c3)c(F)cc12 [Example 5]	20	
Cc1cc(-c2c(F)cc3c(=NN4C(=O)c5ccccc5C4=O)ccn(C4CC4)c3c2F)cc(C)n1 [Example 6]	16	
Cc1cc(-c2c(F)cc3c(c2F)N(C2CC2)C=CC3=C(C#N)C#N)cc(C)n1 [Example 7]		EC50 (human topoisomerase II; [4]): 6.3 µM
CCOC(=O)C(C#N)=C1C=CN(C2CC2)c2c1cc(F)c(-c1cc(C)nc(C)c1)c2F [Example 8a]		EC50 (human topoisomerase II; [4]): 4.8 µM
Cc1cc(-c2c(F)cc3c(c2F)N(C2CC2)C=CC3=CC#N)cc(C)n1 [Example 8b]	4	
CNN=c1ccn(C2CC2)c2c(F)c(-c3cc(C)nc(C)c3)c(F)cc12 [Example 9]	1.9	
Cc1cc(-c2c(F)cc3c(=NO)ccn(C4CC4)c3c2F)cc(C)n1 [Example 10]	1.4	In vivo antitumor activity, Panc03 ([1]; Panc03, sc tumor/iv drug): Inactive
Cc1cc(-c2c(F)cc3c(=NN(C)C)ccn(C4CC4)c3c2F)cc(C)n1 [Example 11]	2.3	
Cc1cc(-c2c(F)cc3c(=NC4CC4)ccn(C4CC4)c3c2F)cc(C)n1 [Example 12]	2.4	In vivo antitumor activity, Panc03 ([1]; Panc03, sc tumor/iv drug): Inactive
Cc1cc(-c2c(F)cc3c(=NNC(N)=O)ccn(C4CC4)c3c2F)cc(C)n1 [Example 13]	3.1	In vivo antitumor activity, Panc03 ([1]; Panc03, sc tumor/iv drug): Inactive
Cc1cc(-c2c(F)cc3c(=NNc4c5ccccc5nc5ccccc45)ccn(C4CC4)c3c2F)cc(C)n1 [Example 14]	28	
Cc1cc(-c2c(F)cc3c(=NNCCO)ccn(C4CC4)c3c2F)cc(C)n1 [Example 15]	3.2	
Cc1cc(-c2c(F)cc3c(=NNc4cnc5ccccc5c4)ccn(C4CC4)c3c2F)cc(C)n1 [Example 16]	92	
CON=c1ccn(C2CC2)c2c(F)c(-c3cc(C)nc(C)c3)c(F)cc12 [Example 17]		EC50 (human topoisomerase II; [4]): 2.6 µM
Cc1cc(-c2c(F)cc3c(=NSc4ccc(Cl)cc4)ccn(C4CC4)c3c2F)cc(C)n1 [Example 18]	9.4	
Cc1cc(-c2c(F)cc3c(=NSc4ccccn4)ccn(C4CC4)c3c2F)cc(C)n1 [Example 19]	3.8	
Cc1cc(-c2c(F)cc3c(=NCCN(C)C)ccn(C4CC4)c3c2F)cc(C)n1 [Example 20]	14	
Cc1cc(-c2c(F)cc3c(=NCCCN(C)C)ccn(C4CC4)c3c2F)cc(C)n1 [Example 21]	5.5	
Cc1cc(-c2c(F)cc3c(=Nc4ccccc4)ccn(C4CC4)c3c2F)cc(C)n1 [Example 22]	1.9	
Cc1cc(-c2c(F)cc3c(=Nc4ccccn4)ccn(C4CC4)c3c2F)cc(C)n1 [Example 23]	3.6	
Cc1cc(-c2c(F)cc3c(=Nc4ccccc4O)ccn(C4CC4)c3c2F)cc(C)n1 [Example 24]	1.6	
Cc1cc(-c2c(F)cc3c(=Nc4ccc(N)cc4)ccn(C4CC4)c3c2F)cc(C)n1 [Example 25]	7.6	
Cc1cc(-c2c(F)cc3c(=O)ccn(C4CC4)c3c2F)cc(C)n1 [Int A]	17	In vivo antitumor activity, Panc03 ([1]; Panc03, route not given): Inactive
Cc1cc(-c2c(F)cc3c(=S)ccn(C4CC4)c3c2F)cc(C)n1 [Int B]		EC50 (human topoisomerase II; footnote E: endpoint of assay extrapolated, read-out: Topo II EC50 (endpoint of assay extrapolated)): 76 µM
CSc1cc[n+](C2CC2)c2c(F)c(-c3cc(C)nc(C)c3)c(F)cc12 [Int C]	24	
